# Results reported in patent US9850383B2, “Uncharged pyrenyloxy sulfonamide dyes for conjugation with biomolecules” (Gene Tools, LLC, priority 2016, dated 2017).
# How the values were obtained:
# [1] = Excitation and emission spectrum (fluorescence); type: physicochemical
# From the text: FIG. 1. Excitation and emission spectrum of pyrenyloxy sulfonamide (Compound 4a)
# FIG. 2. Excitation and emission spectrum of Cascade Blue
# FIG. 3. Excitation and emission spectrum of fluorescein
# (§1) The core structure of the improved, reactive, hydrophilic, uncharged fluorophores is a new class of pyrenyloxy sulfonamide compounds. […] The novelty of this invention involves the substantial improvement of the properties of Cascade Blue, a currently available blue-fluorescent dye. The high polarity of anionic sulfonate of Cascade Blue results in the membrane-impermeability which can only be used extracellularly, a major disadvantage for many desirable applications. […] And the high aqueous solubility of the pyrenyloxy sulfonamide is useful for biological and physiological application, allowing staining the cell surface which is negatively charged, and even more useful to enter the cell for intracellular detection. In addition, the Stokes shift of Cascade Blue is undesirably small (ca. 20 nm, FIG. 2). […] The Stokes shift of the compounds of this invention is a much more practical 44 nm (FIG. 1), a significant improvement in its utility as a tracer for biological applications. The molar extinction coefficient of the structure of the invention is slightly higher (3.1×10^4 cm^−1 M^−1 at λ423 nm) than that of Cascade Blue (2.9×10^4 cm^−1 M^−1 at λ410 nm), an additional advantage for increased sensitivity. Photostability of the dye (compound 6 in FIG. 6) was tested under the light exposure. The scans were overlaid up to 60 mins with 15 min interval. […] This resistance to photobleaching greatly enhances the utility of the dye for quantitative measurements and permits extended illumination time.
# Obvious is the spectra region shorter than 500 nm which is particularly valuable to get away from interference where green fluorescent protein is present or, to carry out the applications requiring multiple dyes such as flow cytometry, DNA sequencing and multiparameter microscopy. […] This special feature increases the sensitivity of the fluorescence techniques where the emission signal can be maximized against the low background.
# [2] = Molar extinction coefficient; type: physicochemical; conditions: at λ410 nm
# From the text: as §1, with “sensitivity.” for “sensitivity. Photostability of the dye (compound 6 in FIG. 6) was tested under the light exposure. The scans were overlaid up to 60 mins with 15 min interval.”
Stokes shift [1],peak of emission [1],peak of excitation [1],molar extinction coefficient [2],Compound
ca. 44 nm,465 nm,421 nm,,"O=S(=O)(c1cc(OCCCO)c2ccc3c(S(=O)(=O)N4CCOCC4)cc(S(=O)(=O)N4CCOCC4)c4ccc1c2c34)N1CCOCC1 [Compound 4a, 8-(3′-hydroxypropyloxy)pyren-tris(morpholino)-1,3,6-trisulfonamide]"
ca. 20 nm,,,29000 cm⁻¹ M⁻¹,Cascade Blue [reference compound]
